ChEMBL document CHEMBL1201862, “PubChem BioAssay data set” (2004)
The source made the active and inactive calls.

Experiments:
[1] = reduced cellular PGC1a acetyl-lysine signal – cell-based, cherry-picked samples, dose response (AID 720514); format: functional;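 note: potency may reflect raised or lowered acetylation signal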
Prothrombin = Prothrombin (Homo sapiens, UniProt P00734); experiment: Thrombin 1536 HTS Dose Response Confirmation. [Related pubchem assays: 1046 (Thrombin 1536 HTS; hits were confirmed in this assay)]; format: functional
[2] = target: T1, Histone-lysine N-methyltransferase NSD2 (Homo sapiens, UniProt O96028); format: biochemical
T1 sequence (O96028 whole entry): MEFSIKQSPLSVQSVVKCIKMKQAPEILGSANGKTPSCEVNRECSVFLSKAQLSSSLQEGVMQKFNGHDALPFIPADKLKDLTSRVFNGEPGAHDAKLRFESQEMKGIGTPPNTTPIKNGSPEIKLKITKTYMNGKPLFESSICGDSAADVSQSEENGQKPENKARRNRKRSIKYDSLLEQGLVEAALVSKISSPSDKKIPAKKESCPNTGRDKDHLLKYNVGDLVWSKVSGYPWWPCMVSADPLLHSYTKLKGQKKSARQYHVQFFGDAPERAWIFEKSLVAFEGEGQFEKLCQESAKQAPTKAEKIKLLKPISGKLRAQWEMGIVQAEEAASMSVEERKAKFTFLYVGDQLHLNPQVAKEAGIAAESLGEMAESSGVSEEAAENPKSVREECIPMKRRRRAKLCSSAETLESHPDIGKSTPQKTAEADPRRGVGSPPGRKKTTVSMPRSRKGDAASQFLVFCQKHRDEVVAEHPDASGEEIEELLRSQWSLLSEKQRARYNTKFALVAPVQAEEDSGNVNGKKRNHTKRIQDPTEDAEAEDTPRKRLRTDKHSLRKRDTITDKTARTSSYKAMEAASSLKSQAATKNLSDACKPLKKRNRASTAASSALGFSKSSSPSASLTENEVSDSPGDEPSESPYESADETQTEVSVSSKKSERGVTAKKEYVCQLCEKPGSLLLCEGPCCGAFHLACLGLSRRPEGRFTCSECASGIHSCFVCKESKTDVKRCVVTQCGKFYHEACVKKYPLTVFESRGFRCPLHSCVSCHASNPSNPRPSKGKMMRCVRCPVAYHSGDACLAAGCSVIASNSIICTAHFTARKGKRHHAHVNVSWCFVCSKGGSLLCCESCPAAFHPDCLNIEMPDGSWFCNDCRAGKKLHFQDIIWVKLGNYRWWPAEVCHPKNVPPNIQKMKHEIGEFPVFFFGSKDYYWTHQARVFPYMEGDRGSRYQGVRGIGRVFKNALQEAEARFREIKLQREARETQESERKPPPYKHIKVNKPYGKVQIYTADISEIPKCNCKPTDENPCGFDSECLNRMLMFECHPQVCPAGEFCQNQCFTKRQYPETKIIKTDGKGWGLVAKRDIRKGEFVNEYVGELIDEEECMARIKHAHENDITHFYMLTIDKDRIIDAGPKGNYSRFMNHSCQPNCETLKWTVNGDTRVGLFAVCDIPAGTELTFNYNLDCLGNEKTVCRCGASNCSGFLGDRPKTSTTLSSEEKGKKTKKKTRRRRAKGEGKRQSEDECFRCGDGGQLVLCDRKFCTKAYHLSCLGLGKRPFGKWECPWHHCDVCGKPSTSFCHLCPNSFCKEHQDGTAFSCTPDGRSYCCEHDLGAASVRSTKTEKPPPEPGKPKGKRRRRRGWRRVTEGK

Paired box protein Pax-8 = Paired box protein Pax-8 (Homo sapiens, UniProt Q06710); experiment: PAX8 transcriptional activity inhibition in RMG-I – RMG-I cells, luciferase, cherry-pick, dose response (AID 687027); format: functional, cell-based;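 note: luciferase reporter driven by Pax8 target thyroperoxidase promoter measured by SteadyGlo luminescence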
Paired box protein Pax-8, sequence (Q06710 whole entry): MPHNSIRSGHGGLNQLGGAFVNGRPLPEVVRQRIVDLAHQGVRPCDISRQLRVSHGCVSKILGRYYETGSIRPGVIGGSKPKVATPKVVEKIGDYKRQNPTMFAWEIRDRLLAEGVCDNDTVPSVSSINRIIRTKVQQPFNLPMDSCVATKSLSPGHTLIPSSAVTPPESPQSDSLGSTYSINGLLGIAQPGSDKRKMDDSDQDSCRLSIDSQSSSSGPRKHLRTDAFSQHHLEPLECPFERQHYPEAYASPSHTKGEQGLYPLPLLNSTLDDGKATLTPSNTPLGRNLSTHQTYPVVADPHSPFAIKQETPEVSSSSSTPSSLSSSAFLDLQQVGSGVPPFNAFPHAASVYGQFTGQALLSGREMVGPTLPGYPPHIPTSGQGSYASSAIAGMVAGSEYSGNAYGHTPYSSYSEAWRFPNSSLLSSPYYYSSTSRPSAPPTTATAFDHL

[3] = toxicity to human hepatoma HepG2 cells – cell-based, cherry-picked samples, cytotoxicity control, dose response (AID 1159577); format: functional
[4] = P. falciparum Dd2 growth inhibitors, dose response, SYBR Green, cherry-picked samples (AID 1159567); format: functional, cell-based
cells = format: functional
[5] = THP-1 cell cytotoxicity, dose response, cytotoxicity control for non-replicating M. tuberculosis project (AID 489025); format: functional
[6] = viability loss in THP-1 monocytes – THP-1 cells, cytotoxicity control for Vif-APOBEC3G degradation inhibitor project, dose response (AID 1117359); format: functional; conditions: THP-1
[7] = test system: Streptococcus sp. 'group A'; experiment: Streptococcus pyogenes SK(-)GAS viability under kanamycin – luminescence, BacTiterGlo, confirmation, counter-screen for streptokinase expression inhibitor project, dose response (AID 1900); format: functional, organism-based
Streptokinase A = target: T2, Streptokinase A (Streptococcus pyogenes serotype M1, UniProt P10520); experiment: viability-normalized secreted streptokinase activity reduction – plasminogen activation absorbance, OD405, dose response (AID 1914); format: functional, Streptococcus pyogenes M1 GAS;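 note: secreted streptokinase activity via plasminogen activation per viability signal from cell pellet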
T2 sequence (P10520 whole entry): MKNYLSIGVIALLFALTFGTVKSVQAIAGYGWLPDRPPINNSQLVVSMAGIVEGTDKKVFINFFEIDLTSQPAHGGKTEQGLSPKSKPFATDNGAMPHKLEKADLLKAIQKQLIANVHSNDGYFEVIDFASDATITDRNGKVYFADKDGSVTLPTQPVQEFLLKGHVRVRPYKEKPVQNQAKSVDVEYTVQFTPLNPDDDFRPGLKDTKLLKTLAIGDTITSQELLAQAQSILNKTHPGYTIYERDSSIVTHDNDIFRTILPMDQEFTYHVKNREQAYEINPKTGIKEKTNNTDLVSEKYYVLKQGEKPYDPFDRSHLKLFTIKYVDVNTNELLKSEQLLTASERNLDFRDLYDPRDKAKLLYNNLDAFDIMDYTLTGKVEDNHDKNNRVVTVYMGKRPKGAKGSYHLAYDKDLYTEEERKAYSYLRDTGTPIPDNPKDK

Streptococcus = experiment: GAS UMAA2166 growth inhibition – luminescence, BacTiterGlo, counter-screen for streptokinase expression inhibitor project, dose response (AID 1915); format: functional, organism-based;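 note: potency for reduction of bacterial viability or growth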
Large T antigen = Large T antigen (Simian virus 40, UniProt P03070); format: functional, Betapolyomavirus macacae;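 note: Confirmatory-stage PubChem screen for compounds that inhibit SV40 T antigen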
Large T antigen, sequence (P03070 whole entry): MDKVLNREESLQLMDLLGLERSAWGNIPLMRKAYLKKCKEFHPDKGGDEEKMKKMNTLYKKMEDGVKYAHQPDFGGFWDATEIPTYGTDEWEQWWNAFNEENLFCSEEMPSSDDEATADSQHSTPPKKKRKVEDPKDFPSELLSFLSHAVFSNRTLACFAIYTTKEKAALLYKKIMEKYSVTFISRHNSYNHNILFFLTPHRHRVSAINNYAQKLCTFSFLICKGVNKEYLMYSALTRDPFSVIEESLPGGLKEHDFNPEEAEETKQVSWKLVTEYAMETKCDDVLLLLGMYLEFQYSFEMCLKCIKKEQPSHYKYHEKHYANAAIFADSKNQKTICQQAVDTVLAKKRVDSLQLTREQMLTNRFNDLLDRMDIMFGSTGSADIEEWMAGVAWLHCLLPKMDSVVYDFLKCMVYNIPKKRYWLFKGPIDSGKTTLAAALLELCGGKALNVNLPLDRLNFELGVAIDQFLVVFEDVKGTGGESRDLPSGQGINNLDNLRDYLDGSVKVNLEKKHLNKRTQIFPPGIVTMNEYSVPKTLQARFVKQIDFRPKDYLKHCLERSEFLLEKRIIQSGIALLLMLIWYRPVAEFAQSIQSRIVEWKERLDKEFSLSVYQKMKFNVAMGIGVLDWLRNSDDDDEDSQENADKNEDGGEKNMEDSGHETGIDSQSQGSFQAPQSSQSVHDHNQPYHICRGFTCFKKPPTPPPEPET

Beta-galactosidase = Beta-galactosidase (Escherichia coli, UniProt Q8VNN2); experiment: detection-enzyme interference by beta-gal modulators – biochemical, E. coli enzyme, set 3, artefact control for CCR6 antagonist project, dose response (AID 504712); format: functional
Beta-galactosidase, sequence (Q8VNN2 whole entry): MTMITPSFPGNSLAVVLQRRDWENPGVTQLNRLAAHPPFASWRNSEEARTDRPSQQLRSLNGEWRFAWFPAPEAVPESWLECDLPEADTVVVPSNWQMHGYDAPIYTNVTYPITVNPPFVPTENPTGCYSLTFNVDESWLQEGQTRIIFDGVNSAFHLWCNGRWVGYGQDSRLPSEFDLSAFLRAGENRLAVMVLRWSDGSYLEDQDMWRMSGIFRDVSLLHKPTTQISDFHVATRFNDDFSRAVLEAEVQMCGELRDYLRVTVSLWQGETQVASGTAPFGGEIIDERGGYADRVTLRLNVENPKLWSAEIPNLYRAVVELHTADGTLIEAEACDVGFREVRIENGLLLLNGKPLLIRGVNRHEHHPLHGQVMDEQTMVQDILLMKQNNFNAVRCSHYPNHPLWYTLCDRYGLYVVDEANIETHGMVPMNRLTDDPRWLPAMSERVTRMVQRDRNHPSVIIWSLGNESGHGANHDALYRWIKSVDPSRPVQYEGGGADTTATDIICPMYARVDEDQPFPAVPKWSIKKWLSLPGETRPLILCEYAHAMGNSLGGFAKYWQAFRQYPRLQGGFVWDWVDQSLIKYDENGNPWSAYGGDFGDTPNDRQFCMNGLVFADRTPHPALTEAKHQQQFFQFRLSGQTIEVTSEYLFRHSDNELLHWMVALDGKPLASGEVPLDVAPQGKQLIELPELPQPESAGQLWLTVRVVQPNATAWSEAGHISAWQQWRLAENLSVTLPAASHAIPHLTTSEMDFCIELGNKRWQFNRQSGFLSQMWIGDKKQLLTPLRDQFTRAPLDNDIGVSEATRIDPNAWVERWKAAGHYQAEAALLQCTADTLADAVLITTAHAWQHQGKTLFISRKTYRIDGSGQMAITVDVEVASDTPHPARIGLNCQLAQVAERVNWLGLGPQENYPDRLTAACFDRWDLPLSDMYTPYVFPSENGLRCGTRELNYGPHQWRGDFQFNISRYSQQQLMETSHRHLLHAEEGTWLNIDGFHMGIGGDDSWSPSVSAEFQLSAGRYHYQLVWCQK

Which AC50 [1] does the source give for `O=C1c2ccccc2-[n+]2ccc3c([nH]c4ccccc43)c21` [FASCAPLYSIN] here?
Its AC50 is 0.358 µM (active).

With `CCN(CC)S(=O)(=O)c1ccc2c(c1)c(=O)c(C(=O)NCc1ccc3c(c1)OCO3)cn2C` as the molecule, how does the IC50 (Prothrombin) read?
Its IC50 is 0.852 µM (active).

For `CNCCCCOc1ccccc1-c1ccccc1`, which AC50 [2] is on record?
Its AC50 is > 20 µM (inactive).

With `O=C(Cn1nc(C(F)F)cc1C(F)F)NNC(=S)Nc1ccc(F)cc1` as the molecule, how does the IC50 (Prothrombin) read?
The IC50 was > 50 µM (not active).

With `C[C@H](CO)N1C[C@H](C)[C@H](CN(C)C(=O)NC2CCCCC2)Oc2cc(C#Cc3cccc(F)c3)ccc2S1(=O)=O` as the molecule, how does the AC50 (Paired box protein Pax-8) read?
The AC50 was 6.2 µM (active).

What about the AC50 [1] of the same molecule?
Its AC50 is 14.1 µM (active).

For `OC[C@@H]1[C@H](c2ccc(C#CC3CCCC3)cc2)[C@H]2CN(CCC(F)(F)F)CCCCN12`, which AC50 [3] is on record?
Its AC50 is 9.12 µM (active).

What about the AC50 [1] of the same molecule?
The AC50 was 10.4 µM (active).

What about the AC50 [4] of the same molecule?
Its AC50 is 1.43 µM (active).

For `c1ccc(CNCCC(Cc2ccccc2)c2ccco2)cc1` (stereo not drawn), which IC50 (cells) is on record?
The IC50 was > 50 µM (active).

What about the CC50 [5] of the same molecule?
The CC50 was > 40 µM (active).

For `COc1ccc(-c2cc(C)nc(SCC(=O)c3cccc([N+](=O)[O-])c3)n2)cc1`, which CC50 [6] is on record?
Its CC50 is > 40 µM (active).

What does the source list for `Cc1cc(C)c(C)c(OCCCOc2cccc3cccnc23)c1`?
EC50 [7]: 13.1 µM (active); CC50 [6]: 15.4 µM (active); EC50 (Streptokinase A): > 150 µM (not active); EC50 (Streptococcus): 39.4 µM (active)

Which IC50 (Large T antigen) does the source give for `COc1ccc2c(c1OC)C(=O)N(c1ccc(O)cc1)C2` here?
The IC50 was > 100 µM (active).

For `CCOc1cccc(C(=O)NC(=S)Nc2cccc(C)c2)c1`, which IC50 (Beta-galactosidase) is on record?
Its IC50 is > 66.6 µM (inactive).
